Biological target: CNS nicotinic receptors
Assay: Binding to relevant receptor sites
Settings: free base used to prepare the salt forms, stated in words only
Procedure: Receptor binding constants provide a measure of the ability of the compound to bind to half of the relevant receptor sites of certain brain cells of the patient. See, Cheng, et al., Biochem. Pharmacol. 22:3099 (1973). The (2S)-(4E)-N-methyl-5-[3-(5-isopropoxypyridin)yl]-4-penten-2-amine compound used to prepare the salt forms has extremely high affinity for the relevant receptors, with a binding affinity in the low nM range.
Binding of the compounds to relevant receptor sites was determined in accordance with the techniques described in U.S. Pat. No. 6,953,855 to Mazurov et al. Inhibition constants (Ki values), reported in nM, were calculated from the IC50 values using the method of Cheng et al., Biochem, Pharmacol. 22:3099 (1973).

`CN[C@@H](C)C/C=C/c1cncc(OC(C)C)c1` [(2S)-(4E)-N-methyl-5-[3-(5-isopropoxypyridin)yl]-4-penten-2-amine] was tested, and the binding affinity was “low nM range”.

Reference: patent publication US8461344B2, “Polymorph forms of (2S)-(4E)-N-methyl-5-[3-(5-isopropdxypyridin)yl]-4-penten-2-amine” (Targacept, Inc., priority 2006, dated 2013)
